{"source": "patent US11649477B2", "about": "“Assays and reagents for antimicrobial susceptibility testing” (SELUX DIAGNOSTICS, INC., priority 2018, dated 2023)", "key": {"E. coli": {"system": "E. coli", "details": "E. coli strain tested; values as generally found; cited from earlier work"}, "S. aureus": {"system": "S. aureus", "assay": "Rapid AST, vancomycin dilution series read by Eu-cryptate-diamine surface binding (TRF)", "format": "cell-based", "details": "Staphylococcus aureus, CTAB pretreatment, CTAB removed before probe, TRF 330/615 nm, read-out: minimum inhibitory concentration (MIC)", "description": "S. aureus were prepared by diluting colonies into saline to reach a McFarland value of 0.5, which was verified using a spectrophotometer, diluted, and inoculated into 96-well plates containing cation-adjusted Mueller Hinton broth and doubling dilutions of vancomycin. Plates were incubated at 35° C., shaking at 150 rpm for 3 hours, after which 10 μl of Alamar Blue were added to each well and plates were incubated for 1 additional hour. After this incubation, 100 μl of a 0.03% Cetyltrimethylammonium bromide with 0.1M EDTA solution was added to each well. The plates were placed on a shaker at 450 RPM for 10 minutes, followed by centrifugation at 2500×g for 2.5 minutes. The wells were aspirated and 100 μL PBS with 0.05% Tween-20 (PBST) or 100 μl of a 0.03% Cetyltrimethylammonium bromide with 0.1M EDTA solution was added back into the wells. Ten microliters of Eu-cryptate-diamine (5 ng/well) was added to each well and the plates were shaken for 10 minutes. The plates were then centrifuged, the wells aspirated, and 200 μL 1×PBST were added to each well. These steps were repeated twice. After the final wash, time-resolved fluorescence (TRF) for all wells was read at 330/615 nm."}, "K. pneumoniae": {"system": "K. pneumoniae", "assay": "Anionic ratio (growth in colistin vs MHB, Alamar Blue fluorescence)", "format": "cell-based", "details": "4 μg/ml colistin, Ex560/Em590", "description": "(§1) P. mirabilis and K. pneumoniae were prepared by diluting colonies into saline to reach a McFarland value of 0.5, which was verified using a spectrophotometer, diluted, and inoculated into 96-well plates containing cation-adjusted Mueller Hinton broth and doubling dilutions of gentamycin (GEN) and ciproflaxin (CIP). Plates were incubated at 35° C., shaking at 150 rpm for 3 hours, after which 10 μl of Alamar Blue were added to each well and plates were incubated for 1 additional hour. After this incubation, Alamar Blue signal was read as the fluorescent signal Ex560/Em590. […] After the final wash, time-resolved fluorescence (TRF) for all wells was read at 330/615 nm.\n(§2) The anionic ratios were calculated from the background subtracted fluorescent signal (Ex560/Em590) of bacteria grown in 4 μg/ml colistin divided by the background subtracted fluorescent signal of bacteria grown in MHB. […]"}, "P. mirabilis": {"system": "P. mirabilis", "assay": "Anionic ratio (growth in colistin vs MHB, Alamar Blue fluorescence)", "format": "cell-based", "details": "4 μg/ml colistin, Ex560/Em590", "description": "as §1, §2"}}}
{"molecule": "CC[C@H]1OC(=O)[C@H](C)[C@@H](O[C@H]2C[C@@](C)(OC)[C@@H](O)[C@H](C)O2)[C@H](C)[C@@H](O[C@@H]2O[C@H](C)C[C@H](N(C)C)[C@H]2O)[C@](C)(O)C[C@@H](C)CN(C)[C@H](C)[C@@H](O)[C@]1(C)O", "note": "[ATM, azithromycin]", "values": [{"measurement": "MIC values", "setting": "E. coli", "value": "less than or equal to 0.25 μg/ml"}]}
{"molecule": "CN[C@H](CC(C)C)C(=O)N[C@H]1C(=O)N[C@@H](CC(N)=O)C(=O)N[C@H]2C(=O)N[C@H]3C(=O)N[C@H](C(=O)N[C@H](C(=O)O)c4cc(O)cc(O)c4-c4cc3ccc4O)[C@H](O)c3ccc(c(Cl)c3)Oc3cc2cc(c3O[C@@H]2O[C@H](CO)[C@@H](O)[C@H](O)[C@H]2O[C@H]2C[C@](C)(N)[C@H](O)[C@H](C)O2)Oc2ccc(cc2Cl)[C@H]1O", "note": "[VAN, vancomycin]", "values": [{"measurement": "MIC", "setting": "S. aureus", "value": 2, "unit": "µg/mL"}]}
{"molecule": "colistin", "values": [{"measurement": "anionic ratio (background subtracted fluorescent signal in colistin divided by signal in MHB)", "setting": "K. pneumoniae", "value": "−0.08"}, {"measurement": "anionic ratio (background subtracted fluorescent signal in colistin divided by signal in MHB)", "setting": "P. mirabilis", "value": 0.96}]}
